Measurements: US20230046728A1, “TECHNOLOGIES USEFUL FOR ASSESSING PERMEABILITY” (FOG PHARMACEUTICALS, INC., priority 2019, published 2023)

Tested on: Expi293 cells transfected with His-Halotag
Assay: Library cell penetration assay, cell crash method (Example 6)
Format: in vitro ADME, human
Experimental: Animal cells (e.g., Expi293 cells or human HEK 293 cells) were seeded in tissue culture plates and cultured in Opti-MEM media. The cells were set in PETG flasks at a concentration of 6×10^5 cells/mL and a volume of 30 mL. The cell viability was checked to be above 90-93%. The flasks were placed in a shaking incubator at 300 rpm in 8% CO2.
After 24 hours of incubation, for each flask, one 1.5-mL Lo-bind tube and one 2-mL Lo-Bind tube were prepared. In the 1.5-mL tube, 30 μg of polyhistidine-tagged halotag (His-Halotag) plasmid and Opti-MEM media were added to provide a 1-mL mixture. In the 2-mL Lo-Bind tube, 60 μL of ExpiFectamine and 940 μL of Opti-MEM were added. After 5 minutes, the plasmid/Opti-MEM mixture was added to the ExpiFectamine/Opti-MEM mixture. The combined mixture was placed in an incubator at room temperature for 20 minutes, which was subsequently added to the flask.
After 48 hours of transfection, the transfected cells were checked for viability (90% or higher). The transfected cells were transferred to a protein Lo-Bind Eppendorf 96-well deep well plate (1000 μL), where each well contained 1 million cells in 500 μL of Expi293 media.
Solutions of candidate compounds, either individual peptides or peptides from a peptide library (DPLs), were received at a stock concentration of 10 mM and diluted in DMSO and kept in a “Source Plate”. For DPLs, the peptide concentration in the “Source Plate” was 1 mM, whereas for individual peptides, the concentration was either 100 μM (for a final concentration of 100 nM) or 10 μM (for a final concentration of 10 nM). […] of the DPL or individual peptide solution was added in triplicates to the 96-well plate. The cells were kept in a shaking incubator at 300 rpm and 37 ° C., 8% CO2 overnight for about 18-20 hours.
The following day, one of the following two methods was performed: i) capture beads method or ii) cell crash method.
Cell crash method: the 96-well plate was placed in the centrifuge at 300 g for 5 minutes. 720 μL of the supernatant was removed. The cells were resuspended in residual 200 μL of media. The suspensions were transferred to a 96-well v-bottom plate, which was placed in the centrifuge at 300 g for an additional 5 minutes. All remaining media was removed. The cell pellets were washed with 200 μL of PBS, mixed and placed back in the centrifuge at 300 g and 4 ° C. for an additional 5 minutes. The supernatant was removed and 80 μL of PBS was added.
80 μL of eluted proteins/peptides from the capture beads method or the PBD solution from the cell crash method was transferred into a deepwell low binding plate (500 μL). 80 μL of ammonium hydroxide was added. The plate was kept on a shaker at 37 ° C. for 3 hours. The plate was dried in a speedvac overnight.
The following day, the dried cell pellet was resuspended in 70 μL of 47.5% water with 0.1% FA/47.5% ACN with 0.1% FA/10 μM pepmix (10 mM stock)/5% fresh DMSO. The mixture was let sit in the plate for 1 hour to allow the dissolution of the pellet. If the sample appeared cloudy, more resuspension solution was added (50 μL at a time). 50 μL was transferred directly to the mass spec plate and the plate was sealed with the 384-well plate seal.
Once all samples were added (including cell free), the plate was placed in an autosampler of a mass spectrometer. For the mass spectrometry analysis, methods from example 1 were employed.
Results from certain assessment were presented blow. Cell crash method was utilized. Mass Shifted Peptide Theoretical Max signal is signal of an agent comprising —OH obtained when using the DhaA to convert input agent comprising —Cl into product agent comprising —OH form without involving cells (multiple agents may be converted simultaneously; in some embodiments, can be performed library by library). In some embodiments, each library pool plus positive and negative references was tested in a single well, which in some cases contain about a million or so cells. […]

[1] = Mass Shifted Peptide Signal in Cells divided by Theoretical Max Signal per replicate pair, averaged
[2] = library pool tested as mixture, MS signal of unconverted —Cl agent
[3] = library pool tested as mixture, MS signal of —OH agent
[4] = MS signal of unconverted —Cl agent from cells, library pool or individual peptide
[5] = MS signal of —OH agent from cells, library pool or individual peptide
[6] = Mass Shifted Peptide Signal in Cells divided by Mass Shifted Peptide Theoretical Max Signal, averaged across replicates

| Compound | Cell Penetration Score [1] | Peptide Signal in Cells (from cells; agents comprising —Cl) [2] | Mass Shifted Peptide Signal in Cells [3] | Peptide Signal in Cells (from cells; agents comprising —Cl) [4] | Mass Shifted Peptide Signal in Cells [5] | Cell Penetration Score [6] |
| --- | --- | --- | --- | --- | --- | --- |
| CC(C)C[C@H](NC(=O)CCC(=O)NCCOCCOCCCCCCCl)C(=O)N[C@H](C(=O)N[C@@H](Cc1ccccc1)C(=O)N[C@]1(C)CCCCCCC=CCCC[C@@](C)(C(=O)N[C@@H](CO)C(=O)N[C@@H](C)C(=O)N[C@@H](C)C(N)=O)NC(=O)[C@H](CC2CCC2)NC(=O)[C@H](CCC(N)=O)NC(=O)[C@H](C)NC(=O)[C@H](Cc2c[nH]c3ccccc23)NC(=O)[C@H](Cc2ccc(O)cc2)NC(=O)[C@H]([C@@H](C)O)NC1=O)[C@@H](C)O [PEP000118, HaloTagO2-Leu-Thr-Phe-R8-Thr-Tyr-Trp-Ala-Gln-Cba-S5-Ser-Ala-Ala-NH2] | 536 | 4E+07 | 4E+07 | – | – | – |
| CNC(=O)[C@H](C)NC(=O)[C@H](C)NC(=O)[C@H](CO)NC(=O)[C@]1(C)CCCC=CCCCCCC[C@@](C)(NC(=O)[C@H](Cc2ccccc2)NC(=O)[C@@H](NC(=O)[C@H](CC(C)C)NC(=O)CCC(=O)NCCOCCOCCCCCCCl)[C@@H](C)O)C(=O)N[C@@H](C)C(=O)N[C@@H](Cc2ccc(O)cc2)C(=O)N[C@@H](Cc2c[nH]c3ccccc23)C(=O)N[C@@H](C)C(=O)N[C@@H](CCC(N)=O)C(=O)N[C@@H](CC2CCC2)C(=O)N1 [PEP000119, HaloTagO2-Leu-Thr-Phe-R8-Ala-Tyr-Trp-Ala-Gln-Cba-S5-Ser-Ala-Ala-NHMe] | 304 | 1E+07 | 2E+07 | – | – | – |
| CNC(=O)[C@H](C)NC(=O)[C@H](C)NC(=O)[C@H](CO)NC(=O)[C@]1(C)CCCC=CCCCCCC[C@@](C)(NC(=O)[C@H](Cc2ccccc2)NC(=O)[C@@H](NC(=O)[C@H](CC(C)C)NC(=O)CCC(=O)NCCOCCOCCCCCCCl)[C@@H](C)O)C(=O)N[C@@H]([C@@H](C)O)C(=O)N[C@@H](Cc2ccc(O)cc2)C(=O)N[C@@H](Cc2c[nH]c3ccccc23)C(=O)N[C@@H](C)C(=O)N[C@@H](CCC(N)=O)C(=O)N[C@@H](CC2CCC2)C(=O)N1 [PEP000121, HaloTagO2-Leu-Thr-Phe-R8-Thr-Tyr-Trp-Ala-Gln-Cba-S5-Ser-Ala-Ala-NHMe] | 401 | 1E+07 | 2E+07 | – | – | – |
| CC(C)C[C@H](NC(=O)CCC(=O)NCCOCCOCCCCCCCl)C(=O)N[C@H](C(=O)N[C@@H](Cc1ccccc1)C(=O)N[C@]1(C)CCCCCCC=CCCC[C@@](C)(C(=O)N[C@@H](CO)C(=O)N[C@@H](C)C(=O)N[C@@H](C)C(N)=O)NC(=O)[C@H](CC2CCC2)NC(=O)[C@H](C)NC(=O)[C@H](C)NC(=O)[C@H](Cc2c[nH]c3ccccc23)NC(=O)[C@H](Cc2ccc(O)cc2)NC(=O)[C@H](CCC(=O)O)NC1=O)[C@@H](C)O [PEP000122, HaloTagO2-Leu-Thr-Phe-R8-Glu-Tyr-Trp-Ala-Ala-Cba-S5-Ser-Ala-Ala-NH2] | 1188 | 8E+06 | 9E+07 | – | – | – |
| CC(C)C[C@H](NC(=O)CCC(=O)NCCOCCOCCCCCCCl)C(=O)N[C@H](C(=O)N[C@@H](Cc1ccccc1)C(=O)N[C@]1(C)CCCCCCC=CCCC[C@@](C)(C(=O)N[C@@H](CO)C(=O)N[C@@H](C)C(=O)N[C@@H](C)C(N)=O)NC(=O)[C@H](CC2CCC2)NC(=O)[C@H]([C@@H](C)O)NC(=O)[C@H](C)NC(=O)[C@H](Cc2c[nH]c3ccccc23)NC(=O)[C@H](Cc2ccc(O)cc2)NC(=O)[C@H](CCC(=O)O)NC1=O)[C@@H](C)O [PEP000123, HaloTagO2-Leu-Thr-Phe-R8-Glu-Tyr-Trp-Ala-Thr-Cba-S5-Ser-Ala-Ala-NH2] | – | – | – | 1E+07 | 9E+07 | 1083 |

The remaining lines, values ahead:

| Cell Penetration Score [1] | Peptide Signal in Cells (from cells; agents comprising —Cl) [2] | Mass Shifted Peptide Signal in Cells [3] | Peptide Signal in Cells (from cells; agents comprising —Cl) [4] | Mass Shifted Peptide Signal in Cells [5] | Cell Penetration Score [6] | Compound |
| --- | --- | --- | --- | --- | --- | --- |
| 757 | 3E+05 | 4E+07 | – | – | – | CNC(=O)[C@H](C)NC(=O)[C@H](C)NC(=O)[C@H](CO)NC(=O)[C@]1(C)CCCC=CCCCCCC[C@@](C)(NC(=O)[C@H](Cc2ccccc2)NC(=O)[C@@H](NC(=O)[C@H](CC(C)C)NC(=O)CCC(=O)NCCOCCOCCCCCCCl)[C@@H](C)O)C(=O)N[C@@H](CCC(=O)O)C(=O)N[C@@H](Cc2ccc(O)cc2)C(=O)N[C@@H](Cc2c[nH]c3ccccc23)C(=O)N[C@@H](C)C(=O)N[C@@H](CCC(N)=O)C(=O)N[C@@H](CC2CCC2)C(=O)N1 (single isomer, unassigned) [PEP000120, HaloTagO2-Leu-Thr-Phe-R8-Glu-Tyr-Trp-Ala-Gln-Cba-S5-Ser-Ala-Ala-NHMe] |
| – | – | – | 4E+06 | 5E+07 | 888 | CNC(=O)[C@H](C)NC(=O)[C@H](C)NC(=O)[C@H](CO)NC(=O)[C@]1(C)CCCC=CCCCCCC[C@@](C)(NC(=O)[C@H](Cc2ccccc2)NC(=O)[C@@H](NC(=O)[C@H](CC(C)C)NC(=O)CCC(=O)NCCOCCOCCCCCCCl)[C@@H](C)O)C(=O)N[C@@H](CCC(=O)O)C(=O)N[C@@H](Cc2ccc(O)cc2)C(=O)N[C@@H](Cc2c[nH]c3ccccc23)C(=O)N[C@@H](C)C(=O)N[C@@H](CCC(N)=O)C(=O)N[C@@H](CC2CCC2)C(=O)N1 (single isomer, unassigned) [PEP000125, HaloTagO2-Leu-Thr-Phe-R8-Glu-Tyr-Trp-Ala-Gln-Cba-S5-Ser-Ala-Ala-NHMe] |
| 475 | 4E+07 | 4E+07 | – | – | – | CC(C)C[C@H](NC(=O)CCC(=O)NCCOCCOCCCCCCCl)C(=O)N[C@H](C(=O)N[C@@H](Cc1ccccc1)C(=O)N[C@]1(C)CCCCCCC=CCCC[C@@](C)(C(=O)N[C@@H](CO)C(=O)N[C@@H](C)C(=O)N[C@@H](C)C(N)=O)NC(=O)[C@H](CC2CCC2)NC(=O)[C@H](CCC(N)=O)NC(=O)[C@H](C)NC(=O)[C@H](Cc2c[nH]c3ccccc23)NC(=O)[C@H](Cc2ccc(O)cc2)NC(=O)[C@H](C)NC1=O)[C@@H](C)O [PEP000116, HaloTagO2-Leu-Thr-Phe-R8-Ala-Tyr-Trp-Ala-Gln-Cba-S5-Ser-Ala-Ala-NH2] |
| 1141 | 1E+05 | 8E+07 | – | – | – | CC(C)C[C@H](NC(=O)CCC(=O)NCCOCCOCCCCCCCl)C(=O)N[C@H](C(=O)N[C@@H](Cc1ccccc1)C(=O)N[C@]1(C)CCCCCCC=CCCC[C@@](C)(C(=O)N[C@@H](CO)C(=O)N[C@@H](C)C(=O)N[C@@H](C)C(N)=O)NC(=O)[C@H](CC2CCC2)NC(=O)[C@H](CCC(N)=O)NC(=O)[C@H](C)NC(=O)[C@H](Cc2c[nH]c3ccccc23)NC(=O)[C@H](Cc2ccc(O)cc2)NC(=O)[C@H](CCC(=O)O)NC1=O)[C@@H](C)O [PEP000117, HaloTagO2-Leu-Thr-Phe-R8-Glu-Tyr-Trp-Ala-Gln-Cba-S5-Ser-Ala-Ala-NH2] |
| – | – | – | 3E+06 | 5E+07 | 745 | CNC(=O)[C@H](C)NC(=O)[C@H](C)NC(=O)[C@H](CO)NC(=O)[C@]1(C)CCCC=CCCCCCC[C@@](C)(NC(=O)[C@H](Cc2ccccc2)NC(=O)[C@@H](NC(=O)[C@H](CC(C)C)NC(=O)CCC(=O)NCCOCCOCCCCCCCl)[C@@H](C)O)C(=O)N[C@@H](CCC(=O)O)C(=O)N[C@@H](Cc2ccc(O)cc2)C(=O)N[C@@H](Cc2c[nH]c3ccccc23)C(=O)N[C@@H](C)C(=O)N[C@@H](C)C(=O)N[C@@H](CC2CCC2)C(=O)N1 [PEP000124, HaloTagO2-Leu-Thr-Phe-R8-Glu-Tyr-Trp-Ala-Ala-Cba-S5-Ser-Ala-Ala-NHMe] |
